The text below walks through data of patent publication US20090221690A1, “Pharmaceutical Composition for the Prevention/Treatment of Bone Disorders and a Process for the Preparation Thereof” (COUNCIL OF SCIENTIFIC AND INDUSTRIAL RESEARCH, priority 2006, published 2009).

For test [1], the system named is bilaterally ovariectomized immature rats. Put plainly: Estrogen agonistic activity (uterine weight gain). The format is in vivo, rat. The following applies: 0.01 mg/kg/d, oral, 3 days.
Experimental: The test agents were administered once daily for 3 consecutive days by the oral route and uterine weight gain over the corresponding vehicle control group was determined. 17α-Ethynylestradiol was used as reference standard.
The subject of test [2] is labeled chick fetal bones in culture. Kind of test: Chick fetal bone culture assay, bone forming activity. Type of test: cell-based. The settings on record: 0.4 μM; T/C close to unity = no bone forming activity. Here is the method: A slight modification of the method of Raisz (Nature 197: 1015-1016, 1963) was employed. Femur bones are isolated from chick embryos on day 11 post-ovulation and cleared of adhering connective tissue by carefully rotating each bone on dry Whatman (I) filter paper under stereomicroscope. Each femur bone is then placed in a drop of PBS before culturing in BGJb medium (pH 7.3) supplemented with penicillin (0.075 mg/ml), streptomycin (0.05 mg/ml), HEPES (2.382 mg/ml) and BSA (1 mg/ml), transferred to BGJb culture medium containing ^45CaCl2 (0.5 μCi/300 μl culture medium) and incubated for 2 h at 37° C. under 5% CO2 in air. Labeled femur bones are then washed with BGJb medium for 24 h at 37° C. under 5% CO2 in air. […]
Contralateral femur of each fetus serves as corresponding control. […] Radioactivity due to ^45Ca in the spent medium collected at 24, 48 and 96 h of culture and HCl extract at 96 h of culture is quantified by Liquid Scintillation Spectrophotometer in 10 ml of the scintillation fluid (ACS II scintillation cocktail, Amersham Biosciences, UK). […]
Bone forming activity (cpm)=A×(A/B)^1/2 ×Total radioactivity incorporated into bone during 24 h incubation with ^45Ca
where total radioactivity refers to ^45Ca released into the medium during first 24 hrs incubation+^45Ca released into the medium during 24 to 96 hr of incubation+^45Ca remaining in the femur. […]

With `C#C[C@]1(O)CC[C@H]2[C@@H]3CCc4cc(O)ccc4[C@H]3CC[C@@]21C` [17α-Ethynylestradiol], the Uterine weight gain in test [1] is reported as 514%. As for “PTH (aa 1-34): Parathyroid hormone (PTH; aa 1-34), an osteogenic agent, taken as positive control (SVSEIQLMHNLGKHLNSMERVEWLRKKLQDVHNF; Parathyroid hormone; UniProt P01270 32-65, looked up, fragment)”, the “T/C ratio (bone forming activity)” value in test [2] amounted to 0.44.
